Reference: US20210401776A1, “METHOD OF TREATING […] SYNDROMES USING FENFLURAMINE ENANTIOMERS” (ZOGENIX INTERNATIONAL LIMITED, priority 2018, published 2021)
“Also recorded” adds a separate entry of the source.

Assays:
[1] = test system: homozygous scn1Lab−/− mutants; test: zebrafish locomotor assay (total distance in large movements, lardist); type: in vivo, zebrafish (Danio rerio); settings: scn1Lab−/− mutants; for reduction in seizure behavior: fixed concentration, FIG. 3
Excerpt: (Baraban et al, 2013). Additional phenotypes of these mutants include: abnormal optokinetic response (OKR; 5 dpf); darkened pigmentation; death by 14 dpf; spontaneous seizure-like activity; abnormal (forebrain electrographic activity (3-7 dpf); seizure activity; lower levels of serotonin in scn1lab^−/− head homogenates at 7 dpf; zebrafish express orthologs of human serotonin (5HT) receptor subtypes at 5 dpf; nighttime hyperactivity (5 dpf); in open field-increased thigmotaxis. decreased movement (at 5 dpf); no differences in GABAergic neurons compared to wild type (5 dpf); 5-HT2a (hitr2aa/b) and S-HT2c; (htr2c11) orthologs expressed in larval heads in wild-type and scn1lab−/− mutants and in adult wild-type brains.
To assay the locomotor activity of homozygous scn1Lab−/− mutants and control WT scn1Lab+/+, zebrafish larvae were placed one larva per well in a 96-well plate in 100 μL of embryo medium from 4 to 8 days post-fertilization (dpf). Each day the larvae are tracked in an automated tracking device (ZebraBox™ apparatus; Viewpoint, Lyon, France) for 10 min after 30 min habituation (100-second integration interval). All recordings were performed at the same time during daytime period. The total distance in large movements was recorded and quantified using ZebraLab™ software (Viewpoint, Lyon, France). Data was pooled together from at least three independent experiments with at least 24 larvae per condition.
Scn1Lab^−/− mutants and WT scn1Lab+/+ larvae are arrayed in the same plate and treated at 6 days post fertilization (dpf) with the test compounds (25 μM), or VHC in individual wells of a 96-well plate. After incubation at 28° C. on a 14/10 hour light/dark cycle and 30-min chamber habituation 6 and 7 dpf larvae are tracked for locomotor activity for 10 min (100-second integration interval) under dark conditions. An incubation time of 1.5 hours is further referred to as short treatment (6 dpf). Furthermore, these larvae are analyzed after more than 22 hours incubation (7 dpf), i.e. long treatment. The total locomotor activity is quantified using the parameter lardist and plotted in cm. Data for each compound is pooled together from multiple independent experiments with at least 9 larvae per treatment condition.

[2] = test system: homozygous scn1Lab−/− mutants; test: epileptiform activity, open-field recordings in larval forebrain (LFP assay); type: in vivo, zebrafish (Danio rerio); settings: for LFP Assay: Table 1, 25, 59 and 100 μM, oral via embryo medium
dizocilpine-treated mice [3] = test: spontaneous alternation in the Y-maze, dizocilpine-induced amnesia model; type: in vivo, Male Swiss OF-1 mice
dizocilpine-treated mice [4] = test: step-through passive avoidance, dizocilpine-induced amnesia model; type: in vivo, Male Swiss OF-1 mice

CC(N)Cc1cccc(C(F)(F)F)c1 (single isomer, unassigned; (-)) [(−)-Norfenfluramine]
reduction in seizure behavior [1]: 45%
anti-epileptiform activity (frequency and cumulative duration of epileptiform events over 10 minutes) ([2]; 50 micromolar, FIGS. 4 and 5): less efficacious than (+)- and (−)-fenfluramine; also recorded: comparable
LFP Assay [2]: Inactive

pregnenolone sulfate [PREGS]
PP (%) (dizocilpine-treated mice [3]; Table 6 YMT, PREGS alone 5 mg/kg sc): 3.5 ± 17.6%
PP (%) (dizocilpine-treated mice [3]; Table 6 YMT, PREGS alone 10 mg/kg sc): 52.4 ± 12.2%
PP (%) (dizocilpine-treated mice [3]; Table 6 YMT, PREGS alone 20 mg/kg sc): 72.1 ± 12.4 ^1%
PP (%) (dizocilpine-treated mice [4]; Table 6 STPA, PREGS alone 5 mg/kg sc): 4.4 ± 16.3%
PP (%) (dizocilpine-treated mice [4]; Table 6 STPA, PREGS alone 10 mg/kg sc): 21.0 ± 14.6%
PP (%) (dizocilpine-treated mice [4]; Table 6 STPA, PREGS alone 20 mg/kg sc): 26.0 ± 19.1 ^4%

Dehydroepiandrosterone sulfate [DHEAS]
PP (%) (dizocilpine-treated mice [3]; Table 5 YMT, DHEAS alone 5 mg/kg sc): 18.4 ± 9.7%
PP (%) (dizocilpine-treated mice [3]; Table 5 YMT, DHEAS alone 10 mg/kg sc): 29.8 ± 7.4%
PP (%) (dizocilpine-treated mice [3]; Table 5 YMT, DHEAS alone 20 mg/kg sc): 57.9 ± 11.0^1%
PP (%) (dizocilpine-treated mice [4]; Table 5 STPA, DHEAS alone 5 mg/kg sc): 19.1 ± 10.7%
PP (%) (dizocilpine-treated mice [4]; Table 5 STPA, DHEAS alone 10 mg/kg sc): 47.2 ± 12.8%
PP (%) (dizocilpine-treated mice [4]; Table 5 STPA, DHEAS alone 20 mg/kg sc): 40.3 ± 13.3^4%

Cl.O=C(OCCN1CCOCC1)C1(c2ccccc2)CCCCC1 [PRE-084, 2-(4-Morpholinethyl)-1-phenylcyclohexanecarboxylate hydrochloride]
PP (%) (dizocilpine-treated mice [3]; Table 2 Y-Maze, drug alone 0.1 mg/kg IP): 6.6 ± 12.8%
PP (%) (dizocilpine-treated mice [3]; Table 2 Y-Maze, drug alone 0.3 mg/kg IP): 40.5 ± 9.2 ^1%
PP (%) (dizocilpine-treated mice [3]; Table 3 Y-Maze, drug alone 0.1 mg/kg IP): 15.4 ± 10.9%
PP (%) (dizocilpine-treated mice [3]; Table 3 Y-Maze, drug alone 0.3 mg/kg IP): 32.6 ± 8.9 ^1%
PP (%) (dizocilpine-treated mice [3]; Table 4 Y Maze, drug alone 0.1 mg/kg IP): 17.2 ± 13.8%
PP (%) (dizocilpine-treated mice [3]; Table 4 Y Maze, drug alone 0.3 mg/kg IP): 27.0 ± 9.5 ^1%
PP (%) (dizocilpine-treated mice [4]; Table 2 StepThrough/Passive Avoidance, drug alone 0.1 mg/kg IP): 4.9 ± 9.9%
PP (%) (dizocilpine-treated mice [4]; Table 2 StepThrough/Passive Avoidance, drug alone 0.3 mg/kg IP): 34.6 ± 10.5 ^3%
PP (%) (dizocilpine-treated mice [4]; Table 3 StepThrough/PassiveAvoidance, drug alone 0.1 mg/kg IP): 7.6 ± 12.4%
PP (%) (dizocilpine-treated mice [4]; Table 3 StepThrough/PassiveAvoidance, drug alone 0.3 mg/kg IP): 25.2 ± 9.8 ^3%
PP (%) (dizocilpine-treated mice [4]; Table 4 StepThrough/PassiveAvoidance, drug alone 0.1 mg/kg IP): 8.8 ± 11.0%
PP (%) (dizocilpine-treated mice [4]; Table 4 StepThrough/PassiveAvoidance, drug alone 0.3 mg/kg IP): 38.9 ± 10.4 ^3%

CC(N)Cc1cccc(C(F)(F)F)c1 (single isomer, unassigned; (+)) [(+)-Norfenfluramine]
antiseizure activity in the zebrafish locomotor assay [1]: more efficacious than (−)-norfenfluramine
reduction in seizure behavior [1]: 80%
LFP Assay [2]: Less effective than (+)-FFA;
